We go through 52 molecules from article PMC11995724, “Antibiotic target discovery by integrated phenotypic and activity-based profiling of electrophilic fragments” (Cell chemical biology, 2025).

In general, viability refers to a read-out of living cells in per cent, often relative to untreated cells.

The series is described as follows: in vitro. The following applies: human, hek293t cells.
In the case of `O=C(O)C(c1ccccc1)N1C(=O)C=CC1=O` (stereo not shown) [10-E21, 2-(2,5-dioxo-2,5-dihydro-1H-pyrrol-1-yl)-2-phenylacetic acid], the viability at 48 h, 25 µM amounted to 92.4%.

`O=C(O)c1csc(C(=O)CCl)c1` [10-E22, 5-(2-chloroacetyl)thiophene-3-carboxylic acid]: the viability at 48 h, 25 µM was 91.8%.

For `COc1ccc2[nH]cc(C3=CCN(C(=O)C=CCN(C)C)CC3)c2c1` [10-F03, 4-(dimethylamino)-1-[4-(5-methoxy-1H-indol-3-yl)-1,2,3,6-tetrahydropyridin-1-yl]but-2-en-1-one], the viability at 48 h, 25 µM was found to be 92.2%.

As for `CCN(c1ccc(C(=O)CCl)cc1)S(C)(=O)=O` [10-F04, N-[4-(2-chloroacetyl)phenyl]-N-ethylmethanesulfonamide], the viability at 48 h, 25 µM is 22.5%.

For `Cc1cc(C(=O)CCl)c(C)n1-c1ccon1` [10-F06, 2-chloro-1-[2,5-dimethyl-1-(1,2-oxazol-3-yl)-1H-pyrrol-3-yl]ethan-1-one], the viability at 48 h, 25 µM was 1.56%.

As for `Cn1c(=O)oc2cc(C(=O)CCl)ccc21` [10-F07, 6-(2-chloroacetyl)-3-methyl-2,3-dihydro-1,3-benzoxazol-2-one], the viability at 48 h, 25 µM was found to be 110%.

Consider `CC(C)Cn1c(N)c(C(=O)CCl)c(=O)[nH]c1=O` [10-F08, 6-amino-5-(2-chloroacetyl)-1-(2-methylpropyl)-1,2,3,4-tetrahydropyrimidine-2,4-dione], for which the viability at 48 h, 25 µM is 91.2%.

Regarding `C#CCN1C(=O)C=CC1=O` [10-F09, 1-(prop-2-yn-1-yl)-2,5-dihydro-1H-pyrrole-2,5-dione], the viability at 48 h, 25 µM stood at 98.4%.

Take `N#Cc1ccc(C(=O)CCl)cc1` [10-F10, 4-(2-chloroacetyl)benzonitrile]: the viability at 48 h, 25 µM was 49%.

Consider `Cc1ccc(NC(=O)N2CCSSCC2)c(C)c1` [10-F11, N-(2,4-dimethylphenyl)-1,2,5-dithiazepane-5-carboxamide], for which the viability at 48 h, 25 µM amounted to 102%.

Regarding `CCOc1ccc(C(=O)CCl)cc1` [10-F12, 2-chloro-1-(4-ethoxyphenyl)ethan-1-one], the viability at 48 h, 25 µM was 1.95%.

Turning to `Cc1ccc(C)c(N2C(=O)C=CC2=O)c1` [10-F13, 1-(2,5-dimethylphenyl)-2,5-dihydro-1H-pyrrole-2,5-dione], the viability at 48 h, 25 µM came to 109%.

Consider `N#CC(C(=O)CCl)=C1NC(C23CC4CC(CC(C4)C2)C3)=CS1` [10-F14, 2-[4-(adamantan-1-yl)-2,3-dihydro-1,3-thiazol-2-ylidene]-4-chloro-3-oxobutanenitrile], for which the viability at 48 h, 25 µM is 61.8%.

`O=C1C=CC(=O)N1c1ccc(F)cc1F` [10-F15, 1-(2,4-difluorophenyl)-2,5-dihydro-1H-pyrrole-2,5-dione]: the viability at 48 h, 25 µM is 89.5%.

As to `Cc1cc(C(=O)CCl)c(C)n1CCc1cccs1` [10-F16, 2-chloro-1-{2,5-dimethyl-1-[2-(thiophen-2-yl)ethyl]-1H-pyrrol-3-yl}ethan-1-one], the viability at 48 h, 25 µM was determined as 0.304%.

Turning to `O=C1C=CC(=O)N1c1ccc(Oc2ccccc2)cc1` [10-F17, 1-(4-phenoxyphenyl)-2,5-dihydro-1H-pyrrole-2,5-dione], the viability at 48 h, 25 µM worked out at 73.6%.

On to `CCc1ccc(C(=O)CCl)cc1` [10-F18, 2-chloro-1-(4-ethylphenyl)ethan-1-one], for which the viability at 48 h, 25 µM was 1.07%.

Consider `CN(c1ccc(C(=O)CCl)cc1)S(C)(=O)=O` [10-F19, N-[4-(2-chloroacetyl)phenyl]-N-methylmethanesulfonamide], for which the viability at 48 h, 25 µM was found to be 74%.

On to `Cc1ccc(C(=O)C(C)Cl)cc1` (stereo not shown) [10-F20, 2-chloro-1-(4-methylphenyl)propan-1-one], for which the viability at 48 h, 25 µM came to 80.5%.

For `CC(C)c1noc2ncc(C(=O)N3CCSSCC3)cc12` [10-F21, 5-[3-(propan-2-yl)-[1,2]oxazolo[5,4-b]pyridine-5-carbonyl]-1,2,5-dithiazepane], the viability at 48 h, 25 µM was 86.3%.

As to `CC(Cl)C(=O)c1c(N)n(C)c(=O)n(C)c1=O` (stereo not shown) [10-F22, 6-amino-5-(2-chloropropanoyl)-1,3-dimethyl-1,2,3,4-tetrahydropyrimidine-2,4-dione], the viability at 48 h, 25 µM is 87.8%.

For the molecule `O=C1C=CC(=O)N1CCc1ccccc1F` [10-G03, 1-[2-(2-fluorophenyl)ethyl]-2,5-dihydro-1H-pyrrole-2,5-dione], the viability at 48 h, 25 µM was determined as 11.2%.

Take `Cc1cc(C(=O)CCl)c(C)n1-c1ccc(OC(F)(F)F)cc1` [10-G04, 2-chloro-1-{2,5-dimethyl-1-[4-(trifluoromethoxy)phenyl]-1H-pyrrol-3-yl}ethan-1-one]: the viability at 48 h, 25 µM is 0.243%.

Regarding `Cc1csc(-n2c(C)cc(C(=O)CCl)c2C)n1` [10-G05, 2-chloro-1-[2,5-dimethyl-1-(4-methyl-1,3-thiazol-2-yl)-1H-pyrrol-3-yl]ethan-1-one], the viability at 48 h, 25 µM was 72.5%.

Regarding `CCOc1ccc(C(=O)C(C)Cl)cc1` (stereo not shown) [10-G06, 2-chloro-1-(4-ethoxyphenyl)propan-1-one], the viability at 48 h, 25 µM is 89.3%.

For the molecule `CN1C(=O)Cc2cc(C(=O)CCl)ccc21` [10-G07, 5-(2-chloroacetyl)-1-methyl-2,3-dihydro-1H-indol-2-one], the viability at 48 h, 25 µM came to 46.1%.

On to `CN1C(=C(C#N)C(=O)CCl)Sc2ccccc21` [10-G08, 4-chloro-2-(3-methyl-2,3-dihydro-1,3-benzothiazol-2-ylidene)-3-oxobutanenitrile], for which the viability at 48 h, 25 µM was 77.5%.

`O=C1C=CC(=O)N1c1cc(C(F)(F)F)ccc1Cl` [10-G09, 1-[2-chloro-5-(trifluoromethyl)phenyl]-2,5-dihydro-1H-pyrrole-2,5-dione]: the viability at 48 h, 25 µM is 58.9%.

`CNC(=O)c1cc(C(=O)CCl)cn1C` [10-G10, 4-(2-chloroacetyl)-N,1-dimethyl-1H-pyrrole-2-carboxamide]: the viability at 48 h, 25 µM turned out to be 1.73%.

Turning to `CN(C)CCN1C(=O)C=CC1=O` [10-G11, 1-[2-(dimethylamino)ethyl]-2,5-dihydro-1H-pyrrole-2,5-dione], the viability at 48 h, 25 µM is 96.9%.

As to `COC(=O)C(C(=O)CCl)=C1Nc2ccccc2N1` [10-G12, methyl 4-chloro-2-(2,3-dihydro-1H-1,3-benzodiazol-2-ylidene)-3-oxobutanoate], the viability at 48 h, 25 µM turned out to be 48.7%.

`COC(=O)c1cc(C(=O)CCl)c(C)o1` [10-G13, methyl 4-(2-chloroacetyl)-5-methylfuran-2-carboxylate]: the viability at 48 h, 25 µM came out at 76.4%.

As for `Cc1cc(C(=O)CCl)c(C)n1CCc1ccc(F)cc1` [10-G14, 2-chloro-1-{1-[2-(4-fluorophenyl)ethyl]-2,5-dimethyl-1H-pyrrol-3-yl}ethan-1-one], the viability at 48 h, 25 µM worked out at 0.499%.

In the case of `O=C(CCl)Cc1ccc(F)cc1` [10-G15, 1-chloro-3-(4-fluorophenyl)propan-2-one], the viability at 48 h, 25 µM was 73.7%.

Consider `O=C(CCl)c1cc2c3c(c1)CC(=O)N3CCC2` [10-G16, 6-(2-chloroacetyl)-1-azatricyclo[6.3.1.0,4,12]dodeca-4(12),5,7-trien-2-one], for which the viability at 48 h, 25 µM was determined as 1.58%.

For `O=C(CCl)Cc1ccc(F)cc1F` [10-G17, 1-chloro-3-(2,4-difluorophenyl)propan-2-one], the viability at 48 h, 25 µM is 36.8%.

For `COc1ccc(C(=O)CCl)c(OC)c1` [10-G18, 2-chloro-1-(2,4-dimethoxyphenyl)ethan-1-one], the viability at 48 h, 25 µM was 66.7%.

For `CC(C)(C)c1ccc(CC(=O)CCl)cc1` [10-G19, 1-(4-tert-butylphenyl)-3-chloropropan-2-one], the viability at 48 h, 25 µM amounted to 1.53%.

With `O=C(CCl)c1ccc(Oc2ccccc2)cc1` [10-G20, 2-chloro-1-(4-phenoxyphenyl)ethan-1-one], the viability at 48 h, 25 µM was found to be 0.299%.

For the molecule `CN1C=CC(=C(C#N)C(=O)CCl)C=C1` [10-G21, 4-chloro-2-(1-methyl-1,4-dihydropyridin-4-ylidene)-3-oxobutanenitrile], the viability at 48 h, 25 µM was 1.3%.

On to `Cc1cc(C(=O)O)ccc1N1C(=O)C=CC1=O` [10-G22, 4-(2,5-dioxo-2,5-dihydro-1H-pyrrol-1-yl)-3-methylbenzoic acid], for which the viability at 48 h, 25 µM stood at 107%.

`COC(=O)c1c(C(=O)CCl)c(C)n(C2CC2)c1C` [10-H03, methyl 4-(2-chloroacetyl)-1-cyclopropyl-2,5-dimethyl-1H-pyrrole-3-carboxylate]: the viability at 48 h, 25 µM was 93.4%.

Take `CC(=O)N(C)Cc1ccc(C(=O)CCl)cc1` [10-H04, N-{[4-(2-chloroacetyl)phenyl]methyl}-N-methylacetamide]: the viability at 48 h, 25 µM worked out at 64%.

With `Cc1cccc(N2C(=O)C=CC2=O)c1C` [10-H05, 1-(2,3-dimethylphenyl)-2,5-dihydro-1H-pyrrole-2,5-dione], the viability at 48 h, 25 µM stood at 94.3%.

With `O=C(CCl)c1ccc(CC(=O)N2CCOCC2)s1` [10-H06, 2-chloro-1-{5-[2-(morpholin-4-yl)-2-oxoethyl]thiophen-2-yl}ethan-1-one], the viability at 48 h, 25 µM came out at 71.7%.

As for `COc1ccc(CCN2C(=O)C=CC2=O)cc1OC` [10-H07, 1-[2-(3,4-dimethoxyphenyl)ethyl]-2,5-dihydro-1H-pyrrole-2,5-dione], the viability at 48 h, 25 µM came to 101%.

In the case of `CSc1cc(C(=O)CCl)ccc1NC(C)=O` [10-H08, N-[4-(2-chloroacetyl)-2-(methylsulfanyl)phenyl]acetamide], the viability at 48 h, 25 µM was determined as 8.39%.

In the case of `Cc1cccc2[nH]cc(C(=O)CCl)c12` [10-H09, 2-chloro-1-(4-methyl-1H-indol-3-yl)ethan-1-one], the viability at 48 h, 25 µM was found to be 5.75%.

For `CC(C)n1ccnc1C(=O)CCl` [10-H10, 2-chloro-1-[1-(propan-2-yl)-1H-imidazol-2-yl]ethan-1-one], the viability at 48 h, 25 µM turned out to be 20.4%.

Turning to `O=C(Nc1cc(F)ccc1F)N1CCSSCC1` [10-H11, N-(2,5-difluorophenyl)-1,2,5-dithiazepane-5-carboxamide], the viability at 48 h, 25 µM was 94.9%.

In the case of `CCCn1c(N)c(C(=O)CCl)c(=O)n(C)c1=O` [10-H12, 6-amino-5-(2-chloroacetyl)-3-methyl-1-propyl-1,2,3,4-tetrahydropyrimidine-2,4-dione], the viability at 48 h, 25 µM is 86.3%.

Regarding `COc1cc([N+](=O)[O-])ccc1N1C(=O)C=CC1=O` [10-H13, 1-(2-methoxy-4-nitrophenyl)-2,5-dihydro-1H-pyrrole-2,5-dione], the viability at 48 h, 25 µM came to 97.6%.
